Test results published in ChEMBL document CHEMBL3507680, “University of Dundee, Gates Library screen for HepG2 cell viability”.

Test: Human HepG2 cell viability assay in 384 well format
Assay type: toxicity, cell-based
Parameters: dose 125 nL, time 70.5 hour; concentration not given beside the values
Conditions: HepG2 cells, read-out: Inhibition

Row | Compound | cytotoxicity at 70.5 h [%]
1 | CC(NC(=O)Nc1nnc(-c2ccccn2)s1)C(=O)OC(C)(C)C (configuration not stated) | -11.7
2 | Cc1noc(CS(=O)(=O)CC(=O)NC(C)c2ccccc2)n1 (configuration not stated) | -12.5
3 | CC(C)OC(=O)CCNC(=O)Nc1cccc2ncccc12 | 8.18
4 | CCC(CC)(CC)NC(=O)Nc1nnc(-c2ccccn2)s1 | -13.2
5 | CCOc1cc(CNC(=O)c2cc(-c3ccccn3)no2)ccn1 | -6.7
6 | Cc1cccc(C2CCCN2C(=O)CN(C)S(C)(=O)=O)c1C (configuration not stated) | -5.26
7 | CS(=O)(=O)CCSCc1ccc(Br)c(F)c1 | -1.55
8 | COCc1noc(-c2nn(-c3ccc(F)c(F)c3)c3c2CCC3)n1 | 26
9 | O=C(Nc1ccn(Cc2cccc3cccnc23)n1)C1COCCO1 (configuration not stated) | -8.35
10 | Cc1nc(C2CCCC2)sc1C(N)=O | 12
11 | CS(=O)(=O)CCCSCc1cc(F)cc(Br)c1 | -4.67
12 | CC(C)NC(=O)CN(C)C1CCN(c2ccc(C#N)cn2)CC1 | 0.463
13 | CC(C)c1nsc(NC2CC(=O)N(C(C)(C)C)C2)n1 (configuration not stated) | -8.61
14 | NC(=O)CCSCc1ccc(Br)c(F)c1 | -8.58
15 | CCNC(=O)N(C)CCCc1n[nH]c(N)c1C#N | 17.3
16 | COCc1noc(-c2nn(-c3ccc(F)cc3)c3c2CCC3)n1 | -8.74
17 | O=C(NC1CCN(c2cc(-n3ccnc3)ncn2)CC1)c1ccncc1 | -10.4
18 | Cc1cc2n(n1)CC(CNCCc1cnn(C)c1)CN2 (configuration not stated) | 34.9
19 | Cc1ccc(OCCCNC(=O)Cc2nc3ncccn3n2)cc1 | -13.7

Row | Compound | cytotoxicity at 70.5 h [%]
20 | O=C1NCCN1C1CCN(c2ccnc(-c3ccccc3)n2)CC1 | -7.99
21 | CC(C)Sc1ccc(C(C)NC(=O)CNS(C)(=O)=O)cc1 (configuration not stated) | 17
22 | O=C(CCN1CCc2[nH]nc(C(F)(F)F)c2C1)Nc1ccccc1 | -2.13
23 | CC(C)N(Cc1ccc(C#N)cc1)C(=O)NCCNc1ncccn1 | -12.7
24 | N#Cc1ccc(NC(=O)N2CCCCC2CN2CCCC2=O)cc1 (configuration not stated) | -11
25 | FC(F)(F)c1n[nH]c2c1CN(CCc1ccccn1)CC2 | 13.8
26 | CCSc1ccc(C(C)NC(=O)CCS(C)(=O)=O)cc1 (configuration not stated) | -9.87
27 | CN1CCN(C2CCN(c3ccnc(-c4ccccc4)n3)CC2)C1=O | 6.14
28 | CN(C)c1cc2c(nn1)CCN(C(=O)c1cc3ccccc3[nH]c1=O)C2 | -15.9
29 | Cc1cccc(NC(=O)N(CCC(F)(F)F)C[C@H](O)CO)c1 | -5.55
30 | CSCCC(C)NC(=O)N1CCSC(C)(C)C1 (configuration not stated) | 22.4
31 | O=C(c1ncncc1Cl)N1CCC2(CCCC2)CC1 | -5.92
32 | Cc1nc(NC(=O)OC(C)(C)C)sc1C(=O)O | 21.2
33 | c1nc(CSc2nnc(C3CC3)s2)cs1 | 1.83
34 | CC(C)N(Cc1ccc(C#N)cc1)C(=O)Nc1ccncc1 | -9.08
35 | COCCC(C)NC(=O)N1CCSC(C)(C)C1 (configuration not stated) | -10.1
36 | Cc1cnc(CNS(=O)(=O)CCC2CCCO2)o1 (configuration not stated) | -12.3
37 | CSCC(C)CNC(=O)N1CCSC(C)(C)C1 (configuration not stated) | -2.74
38 | Cc1ccc(NC(=O)NCC(c2cnn(C)c2)N(C)C)c(C)c1 (configuration not stated) | -11

Row | Compound | cytotoxicity at 70.5 h [%]
39 | COCCc1noc(CN(C)c2nccc(C)n2)n1 | -6.87
40 | O=S(=O)(NC1CCC2(CC1)OCCO2)c1cccc(Br)c1 | 12
41 | CC(C)c1noc(CNc2ccc(OC(F)F)cc2OC(F)F)n1 | 8.88
42 | O=S(=O)(NC1CC1)c1cccc(Br)c1 | 3.01
43 | O=S(=O)(NC1CCC2(CC1)OCCO2)c1ccccc1Br | -1.96
44 | O=C(Nc1ccc(-n2ccnc2)c(F)c1)C1CCN(C(=O)C2CC2)CC1 | -1.97
45 | O=C(Nc1ccc(-n2cncn2)c(F)c1)C1CCN(C(=O)C2CC2)CC1 | 1.9
46 | Cc1ccc(-c2n[nH]cc2CNCC2CCc3nnc(C)n3C2)cc1 (configuration not stated) | -0.696
47 | Cc1cccc(CNC(=O)Nc2ccc3c(c2)CCCC(=O)N3)c1 | -1.4
48 | Cc1ccc(C(=O)NCCCC2(C3OCCO3)CCOCC2)cc1C | 1.93
49 | CCc1ccc(C(=O)NCCCC2(C3OCCO3)CCOCC2)cc1 | 11.6
50 | Cc1cnn(CCCOc2ccc3c(c2)OCO3)c1 | -0.603
51 | CCc1nc(C2CCCN2c2ncc(C(N)=O)cc2Cl)no1 (configuration not stated) | 3.61
52 | CCS(=O)(=O)NCCCNc1ncnc2cc(F)c(F)cc12 | -0.956
53 | CCc1nsc(N2CCn3c(nnc3C(F)(F)F)C2)n1 | 2.89
54 | Cc1cc(NC(=O)N(C)C2CCCN(c3ccccc3)C2=O)n(C)n1 (configuration not stated) | -2.17
55 | O=C(CCc1cscn1)N1CCC(C(=O)O)(c2ccccc2)CC1 | 4.76
56 | CN1CCN(C(=O)C2CC=CC2)c2ccccc21 | 9.41
57 | CCc1nc(C2CCCN2c2ncc(C(F)(F)F)cc2Cl)no1 (configuration not stated) | 1.13
